Measurements as given in US8993756B2 (Merck Sharp & Dohme Corp., priority 2011, dated 2015).

Legend:
JAK3 = JAK3 (Homo sapiens (Human), UniProt P52333); test: Jak Biochemical HTRF Assay (JAK3); details: recombinant GST-tagged catalytic domain, [ATP] 2.9 μM
Description: (§1) Biological Assays Jak Biochemical HTRF Assay Protocol
The ability of compounds to inhibit the activity of JAK1, JAK2, JAK3, and Tyk2 was measured using a recombinant purified GST-tagged catalytic domain for each enzyme (Invitrogen JAK1 #M4290, JAK2 #M4290, JAK3 #M4290, Tyk2 #M4290) in an HTRF format biochemical assay. […] Subsequent reagent additions employed an Agilent Bravo. […] After equilibration, 2 μL of 10×ATP in 1× assay buffer was added to initiate the kinase reaction and the plates were shaken and then incubated at room temperature for 120 minutes. At the end of the incubation, 20 μL of 2× stop buffer (streptavidin-Dylight 650 (Thermo #84547B100 mL), Eu-tagged pY20 antibody (Perkin Elmer #AD0067), EDTA, HEPES, and Triton) was added to quench the reaction. […] After normalization to untreated controls, the percent inhibition of the HTRF signal at each compound concentration was calculated. The plot of percent inhibition versus the log of compound concentration was fit with a 4-parameter dose response equation to calculate IC50 values.

JAK2 = JAK2 (Homo sapiens (Human), UniProt O60674); test: Jak Biochemical HTRF Assay (JAK2); details: recombinant GST-tagged catalytic domain, [ATP] 8.5 μM
Description: as §1
The ability of compounds to inhibit the activity of JAK1, JAK2, JAK3, and Tyk2 was measured using a recombinant purified GST-tagged catalytic domain for each enzyme (Invitrogen JAK1 #M4290, JAK2 #M4290, JAK3 #M4290, Tyk2 #M4290) in an HTRF format biochemical assay. […] The basic assay protocol is as follows: First, 250 nL of diluted compounds in DMSO were dispensed into the wells of a dry 384-well Black plate (Greiner #781076) using a Labcyte Echo 555 acoustic dispenser. Subsequent reagent additions employed an Agilent Bravo. Next, 18 μL of 1.11× enzyme and 1.11× substrate in 1× assay buffer (Invitrogen kinase buffer # PV3189, 2 mM DTT, 0.05% BSA) were added to the wells and shaken and then preincubated for 30 minutes at room temperature to allow compound binding to equilibrate. After equilibration, 2 μL of 10×ATP in 1× assay buffer was added to initiate the kinase reaction and the plates were shaken and then incubated at room temperature for 120 minutes. At the end of the incubation, 20 μL of 2× stop buffer (streptavidin-Dylight 650 (Thermo #84547B100 mL), Eu-tagged pY20 antibody (Perkin Elmer #AD0067), EDTA, HEPES, and Triton) was added to quench the reaction. Plates were shaken and centrifuged and then incubated 60 minutes at room temperature and then read on a Perkin Elmer Envision (λex=337 nm, λem=665 and 615 nm, TRF delay time=20 μs). HTRF signal=10,000*665 nm reading 615 nm reading. After normalization to untreated controls, the percent inhibition of the HTRF signal at each compound concentration was calculated. The plot of percent inhibition versus the log of compound concentration was fit with a 4-parameter dose response equation to calculate IC50 values.

Sequence of JAK2 (O60674 849-1124): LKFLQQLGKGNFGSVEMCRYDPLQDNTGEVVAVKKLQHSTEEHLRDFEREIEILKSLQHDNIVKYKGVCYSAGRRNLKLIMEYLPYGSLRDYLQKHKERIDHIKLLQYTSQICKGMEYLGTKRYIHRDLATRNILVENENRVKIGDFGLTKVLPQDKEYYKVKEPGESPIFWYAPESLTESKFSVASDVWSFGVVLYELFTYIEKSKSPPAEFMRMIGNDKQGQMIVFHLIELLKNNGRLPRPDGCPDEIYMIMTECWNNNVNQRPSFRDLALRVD
Sequence of JAK3 (P52333 822-1111): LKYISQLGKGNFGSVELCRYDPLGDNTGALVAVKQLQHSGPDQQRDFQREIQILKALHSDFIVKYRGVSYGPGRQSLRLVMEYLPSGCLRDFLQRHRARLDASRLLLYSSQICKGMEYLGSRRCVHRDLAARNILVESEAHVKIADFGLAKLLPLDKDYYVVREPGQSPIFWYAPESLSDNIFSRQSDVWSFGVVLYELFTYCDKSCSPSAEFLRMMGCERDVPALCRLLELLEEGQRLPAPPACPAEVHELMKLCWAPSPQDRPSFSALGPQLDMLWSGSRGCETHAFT

Row | SMILES | IC50 (JAK3) [µM] | IC50 (JAK2) [µM] | IC50 (JAK3; given as range class) [µM] | IC50 (JAK2; given as range class) [µM]
1 | CCOC(=O)c1c[nH]c2ncnc(-c3ccccc3)c12 [Example 1-1, Ethyl 4-phenyl-7H-pyrrolo[2,3-d]pyrimidine-5-carboxylate] | 0.0055 | 0.091 |  | 
2 | CCOC(=O)c1c[nH]c2ncnc(-c3ccc(Cl)cc3)c12 [Example 1-2, Ethyl 4-(4-chlorophenyl)-7H-pyrrolo[2,3-d]pyrimidine-5-carboxylate] |  |  | 0.01 to 0.5 | 0.01 to 0.5
3 | CCOC(=O)c1c[nH]c2ncnc(-c3cccc(N)c3)c12 [Example 1-3, Ethyl 4-(3-aminophenyl)-7H-pyrrolo[2,3-d]pyrimidine-5-carboxylate] |  |  | 0.01 to 0.5 | > 0.5
4 | CCOC(=O)c1c[nH]c2ncnc(-c3cc(N)nc(OC)c3)c12 [Example 1-4] |  |  | 0.01 to 0.5 | > 0.5
5 | CCOC(=O)c1c[nH]c2ncnc(-c3ccc4cn(C)nc4c3)c12 [Example 1-5, ethyl 4-(2-methyl-2H-indazol-6-yl)-7H-pyrrolo[2,3-d]pyrimidine-5-carboxylate] | 0.0072 | 0.273 |  | 
6 | CCOC(=O)c1c[nH]c2ncnc(-c3cccc(C#N)c3)c12 [Example 1-6, ethyl 4-(3-cyanophenyl)-7H-pyrrolo[2,3-d]pyrimidine-5-carboxylate] |  |  | 0.01 to 0.5 | 0.01 to 0.5
7 | CCOC(=O)c1c[nH]c2ncnc(-c3ccc(C(N)=O)cc3)c12 [Example 1-7, ethyl 4-(4-carbamoylphenyl)-7H-pyrrolo[2,3-d]pyrimidine-5-carboxylate] |  |  | 0.01 to 0.5 | > 0.5
8 | CCOC(=O)c1c[nH]c2ncnc(-c3cccc(C(=O)OC)c3)c12 [Example 1-8, ethyl 4-[3-(methoxycarbonyl)phenyl]-7H-pyrrolo[2,3-d]pyrimidine-5-carboxylate] |  |  | 0.01 to 0.5 | > 0.5
9 | CCOC(=O)c1c[nH]c2ncnc(-c3ccc(C(=O)OC)cc3)c12 [Example 1-9, ethyl 4-[4-(methoxycarbonyl)phenyl]-7H-pyrrolo[2,3-d]pyrimidine-5-carboxylate] |  |  | 0.01 to 0.5 | > 0.5
10 | CCOC(=O)c1c[nH]c2ncnc(-c3ccc(C#N)cc3)c12 [Example 1-10, ethyl 4-(4-cyanophenyl)-7H-pyrrolo[2,3-d]pyrimidine-5-carboxylate] |  |  | 0.01 to 0.5 | > 0.5
11 | CCOC(=O)c1c[nH]c2ncnc(-c3ccc(S(C)(=O)=O)cc3)c12 [Example 1-11, ethyl 4-[4-(methylsulfonyl)phenyl]-7H-pyrrolo[2,3-d]pyrimidine-5-carboxylate] |  |  | 0.01 to 0.5 | > 0.5

The next lines start with the values.

Row | IC50 (JAK3) [µM] | IC50 (JAK2) [µM] | IC50 (JAK3; given as range class) [µM] | IC50 (JAK2; given as range class) [µM] | SMILES
12 |  |  | 0.01 to 0.5 | > 0.5 | CCOC(=O)c1c[nH]c2ncnc(-c3cccc(C(N)=O)c3)c12 [Example 1-12, ethyl 4-(3-carbamoylphenyl)-7H-pyrrolo[2,3-d]pyrimidine-5-carboxylate]
13 |  |  | 0.01 to 0.5 | > 0.5 | CCOC(=O)c1c[nH]c2ncnc(-c3ccc(C(=O)N(C)C)cc3)c12 [Example 1-13, ethyl 4-[4-(dimethylcarbamoyl)phenyl]-7H-pyrrolo[2,3-d]pyrimidine-5-carboxylate]
14 | 0.0081 |  |  |  | CCOC(=O)c1c[nH]c2ncnc(-c3ccc4c(F)n(C)nc4c3)c12 [Example 1-29, ethyl 4-(3-fluoro-2-methyl-2H-indazol-6-yl)-7H-pyrrolo[2,3-d]pyrimidine-5-carboxylate]
15 | 0.0083 |  |  |  | CCOC(=O)c1c[nH]c2ncnc(-c3ccc(CO)c(N)c3)c12 [Example 1-32, ethyl 4-[3-amino-4-(hydroxymethyl)phenyl]-7H-pyrrolo[2,3-d]pyrimidine-5-carboxylate]
16 | 0.0084 |  |  |  | CCOC(=O)c1c[nH]c2ncnc(-c3cccc(Cl)c3)c12 [Example 1-39, ethyl 4-(3-chlorophenyl)-7H-pyrrolo[2,3-d]pyrimidine-5-carboxylate]
17 | 0.0033 |  |  |  | CCOC(=O)c1c[nH]c2ncnc(-c3cccc(OCc4ccccc4)c3)c12 [Example 1-52, ethyl 4-[3-(benzyloxy)phenyl]-7H-pyrrolo[2,3-d]pyrimidine-5-carboxylate]
